According to US5607707A, “Compositions” (priority 1992, dated 1997):

Experiments:
[1] = Water solubility / dissolution; type: physicochemical; details: primary addition of apo-carotenal, in words
[2] = Procedure: The colour stability of the compositions according to the present invention were determined using the following simulated shelf and accelerated storage tests.
This is illustrated with data from a study in which combinations of β-carotene, apo-carotenal and ascorbic acid were incorporated in a typical beverage formulation. The products were stored in bright daylight conditions for a period of 30 days and the colour loss at the end of this period was determined by spectrophotometry.

[3] = Effect of temperature on amount of emulsifier required to achieve optical clarity (Example 6); type: physicochemical; details: for Tween 60 required to achieve optical clarity: 1 g crystalline β-carotene
Procedure: One advantage of the present invention is the wide range of temperatures which can be used in b) above. The temperature developed in mixing in b) is preferably 80°-160° or 180°-200° C. The lower temperatures are particularly useful where more temperature sensitive ingredients are involved. […] Therefore to minimise the amount of emulsifier(s) used, a temperature of not less than 160° C. or preferably 180° C. is preferred. The use of these high temperatures incurs the risk of degradation of pigment unless suitable precautions are taken. For example it is necessary to incorporate an antioxidant in the initial stages of preparation and it is desirable to exclude oxygen by heating the mixture in an atmosphere of nitrogen.
1 g of crystalline β-carotene required the following amounts of Tween 60 at the temperatures stated

Compound: CC(C=O)=CC=CC(C)=CC=CC=C(C)C=CC=C(C)C=CC1=C(C)CCCC1(C)C [apo-carotenal, β-8'-apo-carotenal]
- effect on dissolution of carotene [1]: promoting the dissolution of carotene
- stabilising effect on colour [2]: helps to stabilise β-carotene

Compound: O=C1O[C@H]([C@@H](O)CO)C(O)=C1O [ascorbic acid]
- stabilising effect on colour [2]: effective in reinforcing the stabilising effect of the antioxidants

Compound: CC1=C(/C=C/C(C)=C/C=C/C(C)=C/C=C/C=C(C)/C=C/C=C(C)/C=C/C2=C(C)CCCC2(C)C)C(C)(C)CCC1 [crystalline β-carotene, β-carotene]
- Tween 60 required to achieve optical clarity ([3]; 140 °C): 10.5 g
- Tween 60 required to achieve optical clarity ([3]; 160 °C): 7.5 g
- Tween 60 required to achieve optical clarity ([3]; 180 °C): 4.0 g
- Tween 60 required to achieve optical clarity ([3]; 200 °C): 3.0 g
- effect of temperature on emulsifier required to achieve optical clarity ([3]; pure β-carotene, in words): an increase in temperature permits a reduction in the amount of emulsifier(s) required
